Assay results from patent publication US4567302A, “Polymeric quaternary ammonium salts possessing antimicrobial activity and methods for preparation and use thereof” (priority 1984, dated 1986).

Tested on: microorganisms
Test: Biocidal activity evaluation, overall comparison in words
Type: cell-based
Protocol: The biocidal activity evaluations of the present invention quaternary ammonium salts and mixtures thereof as well as of commercially available biocides (for comparison purposes) were conducted using the Dynatech MIC-2000 system (available from Dynatech Laboratories, Inc., Alexandria, Va.). The Dynatech MIC-2000 system provides a quantitative factor, namely the specific concentration of the compound that inhibits the growth of a test organism.
All compounds were prepared for testing by initially making a 1.0% w/v solution. These were then serially diluted so as to yield concentrations of sample in a range of 2000-16 mg/l. Testing was carried out under aseptic conditions in Trypticase Soy Broth (BBL, Div. Becton, Dickinson & Co., Cockeysville, MD). Each test was performed in duplicate and run at pH levels of 7.0, 8.0, and 9.0. The pH of the test medium was adjusted by the addition of 10% w/v NaOH before sterilization.
Organisms utilized for MIC testing were all purchased from the American Type Culture Collection (ATCC), Rockville, MD. The six organisms chosen for these tests were:
Inocula were prepared in Brain Heart Infusion Broth (BHI, Difco Laboratories, Detroit, MI), and standardized to 3.0×10^8 CFU/ml in 0.85% sterile saline. […] Plates were read and evaluated at this time, and results reported in mg/l of compound that inhibited the growth of the test organisms.

SMILES: O=[N+]([O-])C(Br)(CO)CO [Bronopol]
- biocidal activity (in words): more active than the quaternary ammonium salts of the present invention
